Key:
[1] = Penicillin suppositories, concentration in plasma (Example 34); type: in vivo, S.D. male rats; conditions: Four fold tonicity suppository with 3.6% NaCl and 5% sodium adipate, intrarectal
Experimental: The dispersion was filled in a silicone tube (inner diameter 2.5 mm) to produce a rod-like suppository of 50 mg as a control suppository.
These suppositories were intrarectally administered to S.D. male rats (weighing about 250 g) and the concentration of Carbenicillin in blood was measured.
The concentration of Carbenicillin in blood was determined on sampled plasma by the use of Sarcina luteus ATCC 9341 in accordance with the conventional method.
The same experiment was effected on Dicloxacillin.Na.

[2] = Rectal circulation with fatty acids as promoters (Example 15, Example 1 repeated)
Experimental: Absorption effects under conditions with various tonicities were examined.
The experiment was conducted in the following manner.
(The units in the Table are percents.)

[3] = Rectal circulation: Cephalothin disappeared by absorption (Examples 10-14, 16-18)
Experimental: The experiments were conducted similarly as in Example 1. […] Each sample was diluted and the quantity of Cephalothin disappeared was determined by UV-spectrophotometer of high-speed liquid chromatography.

[4] = Table 9, fatty acid 0.1 W/V %, Example 1 repeated, X 1
[5] = Table 9, fatty acid 0.1 W/V %, Example 1 repeated, X 4
[6] = Table 4, promoter 0.1% W/V, 0.1% W/V Cephalothin.Na, isotonic, after one hour

For CC1(C)S[C@@H]2[C@H](NC(=O)C(C(=O)O)c3ccccc3)C(=O)N2[C@H]1C(=O)O (some centres unmarked) [Carbenicillin.Na], the “Concentration in plasma 5 min.” value [1] was 5000 ng/mL, the “Concentration in plasma 10 min.” value [1] was 14700 ng/mL and the “Concentration in plasma 20 min.” value [1] was 11500 ng/mL. The “Concentration in plasma 30 min.” value [1] was 8900 ng/mL, the “Concentration in plasma 60 min.” value [1] was 5100 ng/mL and the “Concentration in plasma 90 min.” value [1] was 3100 ng/mL. For the same compound, the “Concentration in plasma 120 min.” value [1] was 1600 ng/mL.
With CCCCCCCCCC(=O)[O-].[Na+] [Sodium caprate, sodium caprate] the “medicine disappeared by absorption, Osmotic pressure X 1” value [2, 4] was 5.2 percents and the “medicine disappeared by absorption, Osmotic pressure X 4” value [2, 5] was 8.6 percents.
With CCCCCCCCCCCC(=O)[O-].[Na+] [Sodium laurate, sodium laurate] the “medicine disappeared by absorption, Osmotic pressure X 1” value [2, 4] was 3.9 percents and the “medicine disappeared by absorption, Osmotic pressure X 4” value [2, 5] was 6.5 percents.
For CCCC(=O)O [Butyric acid, butyric acid], the “medicine disappeared by absorption, Osmotic pressure X 1” value ([2]; rat, in vivo) was 9.9 percents, the “medicine disappeared by absorption, Osmotic pressure X 2” value ([2]; rat, in vivo) was 17.1 percents and the “medicine disappeared by absorption, Osmotic pressure X 4” value ([2]; rat, in vivo) was 21.0 percents.
With O=C(O)CCC(=O)O [Succinic acid] the “Cephalothin disappeared by absorption, Osmotic pressure (%) X 1” value (“Cephalothin disappeared … (%) X 1” for short) ([3]; rat, in vivo) was 8.2%, the “Cephalothin disappeared by absorption, Osmotic pressure (%) X 2” value (from here on “Cephalothin disappeared … (%) X 2”) ([3]; rat, in vivo) was 13.1% and the “Cephalothin disappeared by absorption, Osmotic pressure (%) X 4” value (“Cephalothin disappeared … (%) X 4” below) ([3]; rat, in vivo) was 24.0%.
For O=C([O-])c1ccccc1C(=O)[O-].[Na+].[Na+] [Sodium phthalate, sodium phthalate], the “Cephalothin.Na disappeared by absorption, Osmotic pressure X 1” value ([3]; rat, in vivo) was 7.1 percents and the “Cephalothin.Na disappeared by absorption, Osmotic pressure X 4” value ([3]; rat, in vivo) was 18.9 percents.
In the case of NCCCCCC(=O)O [ε-aminocaproic acid], the “Cephalothin disappeared by absorption, Osmotic pressure X 1” value ([3]; rat, in vivo) was 7.1 percents, the “Cephalothin disappeared by absorption, Osmotic pressure X 2” value ([3]; rat, in vivo) was 11.8 percents and the “Cephalothin disappeared by absorption, Osmotic pressure X 4” value ([3]; rat, in vivo) was 17.0 percents.
For CC(=O)CCC(=O)O [Levulinic acid, levulinic acid], the “Cephalothin disappeared … (%) X 1” value ([3]; rat, in vivo) was 11.9%, the “Cephalothin disappeared … (%) X 2” value ([3]; rat, in vivo) was 21.1% and the “Cephalothin disappeared … (%) X 4” value ([3]; rat, in vivo) was 34.3%.
In the case of COC(=O)C(N)CCC(=O)O (racemic) [α-methyl DL-glutamate], the “Cephalothin disappeared by absorption, Osmotic pressure X 4” value ([3]; Table 11, promoter 0.1% W/V, Example 10 repeated, four-fold tonic) was 21.4 percents and the “Cephalothin disappeared by absorption, Osmotic pressure X 1” value ([3]; Table 11, promoter 0.1% W/V, Example 10 repeated, isotonic) was 11.9 percents.
With NCC(=O)O [DL-glycine] the “Cephalothin disappeared by absorption, Osmotic pressure X 4” value ([3]; Table 11, promoter 0.5% W/V, Example 10 repeated, four-fold tonic) was 14.0 percents, the “Cephalothin disappeared by absorption, Osmotic pressure X 1” value ([3]; Table 11, promoter 0.5% W/V, Example 10 repeated, isotonic) was 6.9 percents and the “Cephalothin disappeared by absorption, Osmotic pressure X 2” value ([3]; Table 11, promoter 0.5% W/V, Example 10 repeated, two-fold tonic) was 9.4 percents.
In the case of O=C([O-])C(=O)C(=O)[O-].[Na+].[Na+] [Sodium ketomalonate, sodium ketomalonate], the “Cephalothin disappeared … (%) X 1” value ([3]; rat, in vivo) was 8.4%, the “Cephalothin disappeared … (%) X 2” value ([3]; rat, in vivo) was 12.7% and the “Cephalothin disappeared … (%) X 4” value ([3]; rat, in vivo) was 19.6%.
With CN(C)[C@@H](Cc1ccccc1)C(=O)O [N--dimethylphenylalanine, N-dimethylphenylalanine] the “Cephalothin disappeared by absorption, Osmotic pressure X 1” value ([3]; rat, in vivo) was 10.9 percents and the “Cephalothin disappeared by absorption, Osmotic pressure X 4” value ([3]; rat, in vivo) was 25.5 percents.
With O=P(O)(O)CN(CCN(CP(=O)(O)O)CP(=O)(O)O)CP(=O)(O)O [EDTPO, ethylenediaminetetrakis(methylenephosphonicacid)] the “Cephalothin disappeared by absorption, Osmotic pressure X 1” value ([3]; rat, in vivo) was 7.6 percents and the “Cephalothin disappeared by absorption, Osmotic pressure X 4” value ([3]; rat, in vivo) was 20.0 percents.
For O=S(=O)(O)c1cc(O)c(O)c(S(=O)(=O)O)c1 [DHBDS, 1,2-dihydroxybenzene-3,5-disulfonic acid], the “Cephalothin disappeared by absorption, Osmotic pressure X 1” value ([3]; rat, in vivo) was 9.8 percents and the “Cephalothin disappeared by absorption, Osmotic pressure X 4” value ([3]; rat, in vivo) was 22.0 percents.
For CCCCCCCC(=O)[O-].[Na+] [Sodium caprylate, sodium caprylate], the “medicine disappeared by absorption, Osmotic pressure X 1” value [2, 4] was 5.8 percents and the “medicine disappeared by absorption, Osmotic pressure X 4” value [2, 5] was 13.0 percents.
For O=C(O)CN(CC(=O)O)C1CCCCC1N(CC(=O)O)CC(=O)O (stereo not drawn) [CyDTA, trans-cyclohexanediaminetetraacetic acid], the “Cephalothin disappeared … (%) X 1” value ([3]; rat, in vivo) was 8.1%, the “Cephalothin disappeared … (%) X 2” value ([3]; rat, in vivo) was 15.0% and the “Cephalothin disappeared … (%) X 4” value ([3]; rat, in vivo) was 32.3%.
For CC(=O)CC(=O)Cc1ccccc1 [3-Phenylacetyl acetone, 3-phenylacetyl acetone], the “Cephalothin disappeared by absorption, Osmotic pressure X 4” value ([3]; Table 10, diketo-compounds, Example 10 repeated, four-fold tonic) was 22.2 percents, the “Cephalothin disappeared by absorption, Osmotic pressure X 1” value ([3]; Table 10, diketo-compounds, Example 10 repeated, isotonic) was 9.1 percents and the “Cephalothin disappeared by absorption, Osmotic pressure X 2” value ([3]; Table 10, diketo-compounds, Example 10 repeated, two-fold tonic) was 16.3 percents.
For O=C(O)CCCCCC(=O)O [Pimellic acid, pimellic acid], the “Cephalothin disappeared … (%) X 1” value ([3]; rat, in vivo) was 5.1%, the “Cephalothin disappeared … (%) X 2” value ([3]; rat, in vivo) was 7.8% and the “Cephalothin disappeared … (%) X 4” value ([3]; rat, in vivo) was 15.0%.
With CCCCCC(=O)[O-].[Na+] [Sodium caproate, sodium caproate] the “medicine disappeared by absorption, Osmotic pressure X 1” value [2, 4] was 10.4 percents, the “medicine disappeared by absorption, Osmotic pressure X 2” value ([2]; Table 9, fatty acid 0.1 W/V %, Example 1 repeated, X 2) was 14.7 percents and the “medicine disappeared by absorption, Osmotic pressure X 4” value [2, 5] was 17.2 percents.
For CCCC(=O)C(=O)O [α-ketovaleric acid], the “Cephalothin disappeared … (%) X 1” value ([3]; rat, in vivo) was 9.8%, the “Cephalothin disappeared … (%) X 2” value ([3]; rat, in vivo) was 14.7% and the “Cephalothin disappeared … (%) X 4” value ([3]; rat, in vivo) was 23.2%.
With O=C(O)CNCC(=O)O [Iminodiacetic acid, iminodiacetic acid] the “Cephalothin disappeared … (%) X 1” value ([3]; rat, in vivo) was 7.1%, the “Cephalothin disappeared … (%) X 2” value ([3]; rat, in vivo) was 14.2% and the “Cephalothin disappeared … (%) X 4” value ([3]; rat, in vivo) was 17.0%.
For CC(=O)C(=O)[O-].[Na+] [Sodium pyruvate, sodium pyruvate], the “Cephalothin disappeared … (%) X 1” value ([3]; rat, in vivo) was 7.0%, the “Cephalothin disappeared … (%) X 2” value ([3]; rat, in vivo) was 11.6% and the “Cephalothin disappeared … (%) X 4” value ([3]; rat, in vivo) was 23.1%.
For Cc1onc(-c2c(Cl)cccc2Cl)c1C(=O)N[C@@H]1C(=O)N2[C@@H]1SC(C)(C)[C@@H]2C(=O)O [Dicloxacillin.Na], the “Concentration in plasma 5 min.” value [1] was 4500 ng/mL, the “Concentration in plasma 10 min.” value [1] was 15400 ng/mL and the “Concentration in plasma 20 min.” value [1] was 10500 ng/mL. The “Concentration in plasma 30 min.” value [1] was 7500 ng/mL, the “Concentration in plasma 60 min.” value [1] was 4600 ng/mL and the “Concentration in plasma 90 min.” value [1] was 2900 ng/mL. For the same compound, the “Concentration in plasma 120 min.” value [1] was 900 ng/mL.
For O=C[C@H](O)[C@@H](O)[C@H](O)[C@H](O)C(=O)O [Glucronic acid, glucuronic acid], the “Cephalothin disappeared by absorption, Osmotic pressure X 1” value ([3]; rat, in vivo) was 5.5 percents, the “Cephalothin disappeared by absorption, Osmotic pressure X 2” value ([3]; rat, in vivo) was 11.1 percents and the “Cephalothin disappeared by absorption, Osmotic pressure X 4” value ([3]; rat, in vivo) was 16.4 percents.
For O=C(O)CN(CC(=O)O)CC(O)CN(CC(=O)O)CC(=O)O [DTPA-OH, diaminopropanoltetraacetic acid], the “Cephalothin disappeared … (%) X 1” value ([3]; rat, in vivo) was 7.5%, the “Cephalothin disappeared … (%) X 2” value ([3]; rat, in vivo) was 13.7% and the “Cephalothin disappeared … (%) X 4” value ([3]; rat, in vivo) was 21.6%.
In the case of NC(Cc1ccccc1)C(=O)O (racemic) [DL-phenylalanine], the “Cephalothin disappeared by absorption, Osmotic pressure X 1” value ([3]; rat, in vivo) was 6.6 percents and the “Cephalothin disappeared by absorption, Osmotic pressure X 4” value ([3]; rat, in vivo) was 15.6 percents.
In the case of O=C([O-])C(=O)[O-].[Na+].[Na+] [Sodium oxalate, sodium oxalate], the “Cephalothin disappeared … (%) X 4” value ([3]; Table 4, promoter 0.1% W/V, 0.1% W/V Cephalothin.Na, four-fold tonic, after one hour) was 18.3% and the “Cephalothin disappeared … (%) X 1” value [3, 6] was 6.6%.
For NC(CS(=O)(=O)O)C(=O)O (racemic) [DL-cysteic acid], the “Cephalothin disappeared by absorption, Osmotic pressure X 1” value ([3]; rat, in vivo) was 5.3 percents, the “Cephalothin disappeared by absorption, Osmotic pressure X 2” value ([3]; rat, in vivo) was 9.0 percents and the “Cephalothin disappeared by absorption, Osmotic pressure X 4” value ([3]; rat, in vivo) was 14.6 percents.
In the case of N[C@@H](CC(C(=O)O)C(=O)O)C(=O)O [γ-carboxyglutamic acid], the “Cephalothin disappeared by absorption, Osmotic pressure X 1” value ([3]; rat, in vivo) was 13.1 percents, the “Cephalothin disappeared by absorption, Osmotic pressure X 2” value ([3]; rat, in vivo) was 24.6 percents and the “Cephalothin disappeared by absorption, Osmotic pressure X 4” value ([3]; rat, in vivo) was 31.4 percents.
In the case of O=C(O)CN(CCN(CC(=O)O)CC(=O)O)CC(=O)O [EDTA.2Na, ethylenediaminetetraacetic acid], the “Cephalothin disappeared … (%) X 1” value [3, 6] was 9.4%.

Reference: patent US4900730A, “Preparation which promotes the absorption of peptides” (priority 1981, dated 1990)
